Source: patent publication US11053204B2, “Pyrimidinyloxy benzene derivatives as herbicides” (FMC Corporation, priority 2015, dated 2021)

Legend:
Format in all cases: in vivo
[1] = tested on: ragweed (common ragweed, Ambrosia elatior); assay: Test C preemergence, plant response rating; settings: Preemergence
Summary of the method: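 Greenhouse plants rated visually against untreated controls 13–15 d after treatment, scale 0 = no effect to 100 = complete control. Postemergence sprays went onto potted plants 2–18 cm tall (1–4 leaves); preemergence sprays onto soil freshly sown in loam–sand or silt loam, chemicals formulated in non-phytotoxic solvent with surfactant.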

[2] = tested on: kochia (Kochia scoparia); assay: Test A preemergence, visual injury rating; settings: 0 to 100 scale (0 no effect, 100 complete control)
Summary of the method: (§1)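 Scoring: eye-based comparison with untreated controls, 0 for no effect through 100 for complete control, at about day 10. Treatments: directed soil spray preemergence; foliar spray postemergence on 2–10 cm plants at the one- to two-leaf stage. Medium: loam soil with sand.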

[3] = tested on: pigweed (Amaranthus retroflexus); assay: Test A preemergence, visual injury rating; settings: 0 to 100 scale (0 no effect, 100 complete control)
Summary of the method: as §1

[4] = tested on: barnyardgrass (Echinochloa crus-galli); assay: Test A preemergence, visual injury rating; settings: 0 to 100 scale (0 no effect, 100 complete control)
Summary of the method: as §1

[5] = tested on: giant foxtail (Setaria faberii); assay: Test A preemergence, visual injury rating; settings: 0 to 100 scale (0 no effect, 100 complete control)
Summary of the method: as §1

[6] = tested on: Italian ryegrass (Lolium multiflorum); assay: Test A preemergence, visual injury rating; settings: 0 to 100 scale (0 no effect, 100 complete control)
Summary of the method: as §1

[7] = tested on: ragweed (common ragweed, Ambrosia elatior); assay: Test A preemergence, visual injury rating; settings: 0 to 100 scale (0 no effect, 100 complete control)
Summary of the method: as §1

[8] = tested on: sedge, umbrella (small-flower umbrella sedge, Cyperus difformis); assay: Test B flooded paddy test, plant response rating; settings: 250 g ai/ha; Flood; scale of 0 to 100 where 0 is no effect and 100 is complete control; 13 to 15 days
Summary of the method: (§2)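 Flooded 3 cm over soil; compound into paddy water; depth kept constant. Greenhouse 13–15 d.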

[9] = tested on: barnyardgrass (Echinochloa crus-galli); assay: Test B flooded paddy test, plant response rating; settings: 250 g ai/ha; Flood; scale of 0 to 100 where 0 is no effect and 100 is complete control; 13 to 15 days
Summary of the method: as §2

[10] = tested on: rice (Oryza sativa); assay: Test B flooded paddy test, plant response rating; settings: 250 g ai/ha; Flood; scale of 0 to 100 where 0 is no effect and 100 is complete control; 13 to 15 days
Summary of the method: as §2

[11] = tested on: ducksalad (Heteranthera limosa); assay: Test B flooded paddy test, plant response rating; settings: 250 g ai/ha; Flood; scale of 0 to 100 where 0 is no effect and 100 is complete control; 13 to 15 days
Summary of the method: as §2

[12] = tested on: corn (Zea mays); assay: Test A postemergence, visual injury rating; settings: 0 is no effect, 100 is complete control
Summary of the method: as §1

[13] = tested on: kochia (Kochia scoparia); assay: Test A postemergence, visual injury rating; settings: 0 is no effect, 100 is complete control
Summary of the method: as §1

[14] = tested on: pigweed (Amaranthus retroflexus); assay: Test A postemergence, visual injury rating; settings: 0 is no effect, 100 is complete control
Summary of the method: as §1

[15] = tested on: barnyardgrass (Echinochloa crus-galli); assay: Test A postemergence, visual injury rating; settings: 0 is no effect, 100 is complete control
Summary of the method: as §1

[16] = tested on: giant foxtail (Setaria faberii); assay: Test A postemergence, visual injury rating; settings: 0 is no effect, 100 is complete control
Summary of the method: as §1

[17] = tested on: Italian ryegrass (Lolium multiflorum); assay: Test A postemergence, visual injury rating; settings: 0 is no effect, 100 is complete control
Summary of the method: as §1

[18] = tested on: galium (catchweed bedstraw, Galium aparine); assay: Test A postemergence, visual injury rating; settings: 0 is no effect, 100 is complete control
Summary of the method: as §1

[19] = tested on: wheat (Triticum aestivum); assay: Test A postemergence, visual injury rating; settings: 0 is no effect, 100 is complete control
Summary of the method: as §1

[20] = tested on: blackgrass (Alopecurus myosuroides); assay: Test A postemergence, visual injury rating; settings: 0 is no effect, 100 is complete control
Summary of the method: as §1

[21] = tested on: ragweed (common ragweed, Ambrosia elatior); assay: Test A postemergence, visual injury rating; settings: 0 is no effect, 100 is complete control
Summary of the method: as §1

[22] = 125 g ai/ha, 0 to 100 scale, approximately 10 days

Compound	Plant response rating, Ragweed ([1]; 125 g ai/ha, scale of 0 to 100)	Plant response rating, Ragweed ([1]; 16 g ai/ha, scale 0 to 100)	Plant response rating, Ragweed ([1]; 31 g ai/ha, scale 0 to 100)	Plant response rating, Ragweed ([1]; 62 g ai/ha, scale 0 to 100)	Kochia plant response rating ([2]; 125 g ai/ha)	Kochia plant response rating ([2]; 500 g ai/ha)	Pigweed plant response rating ([3]; 125 g ai/ha)	Pigweed plant response rating ([3]; 500 g ai/ha)	Barnyardgrass plant response rating ([4]; 125 g ai/ha)	Barnyardgrass plant response rating ([4]; 500 g ai/ha)	Foxtail, Giant plant response rating ([5]; 125 g ai/ha)	Foxtail, Giant plant response rating ([5]; 500 g ai/ha)	Ryegrass, Italian plant response rating ([6]; 125 g ai/ha)	Ryegrass, Italian plant response rating ([6]; 500 g ai/ha)	Ragweed plant response rating ([7]; 125 g ai/ha)	Ragweed plant response rating ([7]; 500 g ai/ha)	Plant response rating, Sedge, Umbrella [8]	Plant response rating, Barnyardgrass [9]	Plant response rating, Rice [10]	Plant response rating, Ducksalad [11]	further results
N#Cc1cccc(Oc2ncc(Cl)cn2)c1C(=O)OCCC(F)(F)F [Compound 30]	0	0	0	0	90	100	100	100	0	0	100	100	0	0	0	0	0	0	0	40	Corn plant response rating (0 to 100 scale) ([12]; 125 g ai/ha): 30; Corn plant response rating (0 to 100 scale) ([12]; 500 g ai/ha): 70; Kochia plant response rating (0 to 100 scale) ([13]; 125 g ai/ha): 100; Kochia plant response rating (0 to 100 scale) ([13]; 500 g ai/ha): 100; Pigweed plant response rating (0 to 100 scale) ([14]; 125 g ai/ha): 100; Pigweed plant response rating (0 to 100 scale) ([14]; 500 g ai/ha): 100; Barnyardgrass plant response rating (0 to 100 scale) ([15]; 125 g ai/ha): 0; Barnyardgrass plant response rating (0 to 100 scale) ([15]; 500 g ai/ha): 20; Foxtail, Giant plant response rating (0 to 100 scale) ([16]; 125 g ai/ha): 60; Foxtail, Giant plant response rating (0 to 100 scale) ([16]; 500 g ai/ha): 100; Ryegrass, Italian plant response rating (0 to 100 scale) ([17]; 125 g ai/ha): 0; Ryegrass, Italian plant response rating (0 to 100 scale) ([17]; 500 g ai/ha): 0; Galium plant response rating (0 to 100 scale) ([18]; 125 g ai/ha): 60; Galium plant response rating (0 to 100 scale) ([18]; 500 g ai/ha): 100; Wheat plant response rating (0 to 100 scale) ([19]; 125 g ai/ha): 0; Wheat plant response rating (0 to 100 scale) ([19]; 500 g ai/ha): 30; Blackgrass plant response rating (0 to 100 scale) ([20]; 125 g ai/ha): 10; Blackgrass plant response rating (0 to 100 scale) ([20]; 500 g ai/ha): 30; Ragweed plant response rating (0 to 100 scale) ([21]; 125 g ai/ha): 0; Ragweed plant response rating (0 to 100 scale) ([21]; 500 g ai/ha): 0
O=C(OCCC(F)(F)F)c1c(Br)cccc1Oc1ncc(Br)cn1 [Compound 33]	50	55	35	40	60	100	100	100	100	100	100	100	40	100	0	20	95	0	0	80	Corn plant response rating (0 to 100 scale) ([12]; 125 g ai/ha): 30; Corn plant response rating (0 to 100 scale) ([12]; 500 g ai/ha): 90; Kochia plant response rating (0 to 100 scale) ([13]; 125 g ai/ha): 100; Kochia plant response rating (0 to 100 scale) ([13]; 500 g ai/ha): 100; Pigweed plant response rating (0 to 100 scale) ([14]; 125 g ai/ha): 100; Pigweed plant response rating (0 to 100 scale) ([14]; 500 g ai/ha): 100; Barnyardgrass plant response rating (0 to 100 scale) ([15]; 125 g ai/ha): 80; Barnyardgrass plant response rating (0 to 100 scale) ([15]; 500 g ai/ha): 100; Foxtail, Giant plant response rating (0 to 100 scale) ([16]; 125 g ai/ha): 100; Foxtail, Giant plant response rating (0 to 100 scale) ([16]; 500 g ai/ha): 100; Ryegrass, Italian plant response rating (0 to 100 scale) ([17]; 125 g ai/ha): 30; Ryegrass, Italian plant response rating (0 to 100 scale) ([17]; 500 g ai/ha): 80; Galium plant response rating (0 to 100 scale) ([18]; 125 g ai/ha): 100; Galium plant response rating (0 to 100 scale) ([18]; 500 g ai/ha): 100; Wheat plant response rating (0 to 100 scale) ([19]; 125 g ai/ha): 20; Wheat plant response rating (0 to 100 scale) ([19]; 500 g ai/ha): 60; Blackgrass plant response rating (0 to 100 scale) ([20]; 125 g ai/ha): 60; Blackgrass plant response rating (0 to 100 scale) ([20]; 500 g ai/ha): 90; Ragweed plant response rating (0 to 100 scale) ([21]; 125 g ai/ha): 30; Ragweed plant response rating (0 to 100 scale) ([21]; 500 g ai/ha): 40
CCCC(=O)c1c(Br)cccc1Oc1ncc(Cl)cn1 [Compound 75]	5	0	0	0	80	100	100	100	100	100	100	100	80	100	0	10	95	40	35	95	Corn plant response rating (0 to 100 scale) ([12]; 125 g ai/ha): 80; Corn plant response rating (0 to 100 scale) ([12]; 500 g ai/ha): 90; Kochia plant response rating [13, 22]: 100; Kochia plant response rating (0 to 100 scale) ([13]; 500 g ai/ha): 100; Pigweed plant response rating [14, 22]: 100; Pigweed plant response rating (0 to 100 scale) ([14]; 500 g ai/ha): 100; Barnyardgrass plant response rating (0 to 100 scale) ([15]; 125 g ai/ha): 90; Barnyardgrass plant response rating (0 to 100 scale) ([15]; 500 g ai/ha): 100; Foxtail, Giant plant response rating (0 to 100 scale) ([16]; 125 g ai/ha): 90; Foxtail, Giant plant response rating (0 to 100 scale) ([16]; 500 g ai/ha): 100; Ryegrass, Italian plant response rating [17, 22]: 40; Ryegrass, Italian plant response rating (0 to 100 scale) ([17]; 500 g ai/ha): 70; Galium plant response rating (0 to 100 scale) ([18]; 125 g ai/ha): 80; Galium plant response rating (0 to 100 scale) ([18]; 500 g ai/ha): 100; Wheat plant response rating [19, 22]: 20; Wheat plant response rating (0 to 100 scale) ([19]; 500 g ai/ha): 70; Blackgrass plant response rating (0 to 100 scale) ([20]; 125 g ai/ha): 40; Blackgrass plant response rating (0 to 100 scale) ([20]; 500 g ai/ha): 60; Ragweed plant response rating [21, 22]: 30; Ragweed plant response rating (0 to 100 scale) ([21]; 500 g ai/ha): 40
